{"source": "patent US20160193372A1", "about": "“METHODS OF IDENTIFYING SURROGATE IMAGING AGENTS FOR ALPHA EMITTER RADIOPHARMACEUTICALS AND THEIR USE IN TREATMENT OF DISEASE” (THE JOHNS HOPKINS UNIVERSITY, priority 2012, published 2016)", "origin": "cited, not measured here", "test_system": "mineralizing or proliferating bone matrix", "conditions": "very high administered activities", "data": [{"substance": "^153Sm-EDTMP", "values": [{"measurement": "pain effect in OS", "result": "pain palliation"}, {"measurement": "therapeutic efficacy in OS", "result": "minimal therapeutic efficacy"}]}]}
